Converted amounts (≈) assume the structure as drawn.
Assays:
[1] = Hepatic extraction ratio in mouse liver microsomes up to 100 uM preincubated for 10 mins followed by NADPH addition by UPLC-MS analysis; type: ADME, microsome; conditions: read-out: ERH
[2] = Intracellular bioavailability in human HL60 cells assessed as ratio of fraction unbound in cells to intracellular drug accumulation at 0.5 uM after 45 mins by LC-MS/MS analysis; type: ADME; conditions: hl-60, 0.75 h
[3] = target: T1, dCTP pyrophosphatase 1 (Homo sapiens, UniProt Q9H773); test: Inhibition of recombinant human N-terminal His-tagged dCTPase 1 expressed in Escherichia coli BL21(DE3)pLysS using dCTP as substrate after 1 hr by malachite green reagent based assay
T1 sequence (Q9H773 whole entry): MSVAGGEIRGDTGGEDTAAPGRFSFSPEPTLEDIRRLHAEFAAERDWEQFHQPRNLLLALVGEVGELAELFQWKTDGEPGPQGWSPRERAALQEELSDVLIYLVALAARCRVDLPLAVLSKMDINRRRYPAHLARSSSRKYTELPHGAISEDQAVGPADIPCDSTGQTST

[4] = Half life in mouse liver microsomes up to 100 uM preincubated for 10 mins followed by NADPH addition by UPLC-MS analysis; type: ADME, microsome
[5] = Stability of the compound in biochemical assay buffer under basic mobile phase conditions by HPLC-MS analysis; type: physicochemical
[6] = Metabolic stability in human plasma after 4 hrs; type: ADME, cell-free; conditions: read-out: Stability
[7] = Half life in human liver microsomes up to 100 uM preincubated for 10 mins followed by NADPH addition by UPLC-MS analysis; type: ADME, microsome
[8] = tested on: HL-60; test: Cytotoxicity against human HL60 cells assessed as decrease in cell viability at 1 to 5 uM after 72 hrs by resazurin assay; type: cell-based; conditions: hl-60, 72 h
[9] = Kinetic solubility of the compound; type: physicochemical; conditions: read-out: Kinetic_solubility
[10] = Fraction unbound in human plasma; type: ADME, cell-free
[11] = target: T2, dCTP pyrophosphatase 1 (Homo sapiens) (UniProt Q9H773)
T2 sequence (whole entry): T1 sequence (Q9H773 whole entry)
Description: Binding affinity to recombinant human N-terminal His-tagged dCTPase 1 expressed in Escherichia coli BL21(DE3)pLysS assessed as change in melting temperature at 33 uM by Sypro Orange dye based DSF assay

[12] = Stability of the compound in DMSO measured after several months by HPLC-MS analysis; type: physicochemical
[13] = Stability of the compound in biochemical assay buffer under mildly acidic mobile phase conditions by HPLC-MS analysis; type: physicochemical
[14] = Hepatic extraction ratio in human liver microsomes up to 100 uM preincubated for 10 mins followed by NADPH addition by UPLC-MS analysis; type: ADME, microsome; conditions: read-out: ERH
[15] = target: Bis(5'-nucleosyl)-tetraphosphatase [asymmetrical] (Homo sapiens, UniProt P50583); test: Inhibition of NUDT2 (unknown origin) by malachite green reagent based assay
Sequence of Bis(5'-nucleosyl)-tetraphosphatase [asymmetrical] (P50583 whole entry): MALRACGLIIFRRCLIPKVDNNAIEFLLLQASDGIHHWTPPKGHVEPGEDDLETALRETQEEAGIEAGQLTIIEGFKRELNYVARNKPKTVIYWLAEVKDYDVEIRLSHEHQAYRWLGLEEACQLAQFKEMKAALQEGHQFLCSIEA

[16] = target: Inosine triphosphate pyrophosphatase (Homo sapiens, UniProt Q9BY32); test: Inhibition of human His-tagged ITPase expressed in bacterial expression system after 1 hr by malachite green reagent based assay
[17] = target: T3, ADP-ribose pyrophosphatase, mitochondrial (Homo sapiens, UniProt Q9BW91); test: Inhibition of NUDT9 (unknown origin) by malachite green reagent based assay
T3 sequence (Q9BW91 whole entry): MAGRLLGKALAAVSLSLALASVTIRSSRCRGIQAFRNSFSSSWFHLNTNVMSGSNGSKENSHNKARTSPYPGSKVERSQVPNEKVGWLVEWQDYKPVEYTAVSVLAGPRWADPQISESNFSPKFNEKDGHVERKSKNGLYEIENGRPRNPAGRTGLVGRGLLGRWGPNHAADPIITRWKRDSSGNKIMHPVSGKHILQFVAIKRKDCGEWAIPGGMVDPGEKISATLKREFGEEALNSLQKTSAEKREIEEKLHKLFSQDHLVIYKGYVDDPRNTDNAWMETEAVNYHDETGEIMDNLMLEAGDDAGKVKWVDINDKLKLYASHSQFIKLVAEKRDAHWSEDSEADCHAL

[18] = target: ADP-sugar pyrophosphatase (Homo sapiens, UniProt Q9UKK9); test: Inhibition of human His-tagged NUDT5 expressed in bacterial expression system in presence of ADP after 1 hr by malachite green reagent based assay
[19] = target: Oxidized purine nucleoside triphosphate hydrolase (Homo sapiens, UniProt P36639); test: Inhibition of recombinant human MTH1 using dGTP as substrate after 1 hr by malachite green reagent based assay
[20] = target: T4, Nucleotide triphosphate diphosphatase NUDT15 (Homo sapiens, UniProt Q9NV35); test: Inhibition of human His-tagged NUDT15 expressed in bacterial expression system after 1 hr by malachite green reagent based assay
T4 sequence (Q9NV35 whole entry): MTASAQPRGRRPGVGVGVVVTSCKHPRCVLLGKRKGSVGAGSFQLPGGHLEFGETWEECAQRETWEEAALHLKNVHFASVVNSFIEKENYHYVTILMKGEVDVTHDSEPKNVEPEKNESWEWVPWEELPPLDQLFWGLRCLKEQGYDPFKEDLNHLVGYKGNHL

[21] = target: T5, Uridine diphosphate glucose pyrophosphatase NUDT14 (Homo sapiens, UniProt O95848); test: Inhibition of human His-tagged NUDT14 expressed in bacterial expression system after 1 hr by malachite green reagent based assay
T5 sequence (O95848 whole entry): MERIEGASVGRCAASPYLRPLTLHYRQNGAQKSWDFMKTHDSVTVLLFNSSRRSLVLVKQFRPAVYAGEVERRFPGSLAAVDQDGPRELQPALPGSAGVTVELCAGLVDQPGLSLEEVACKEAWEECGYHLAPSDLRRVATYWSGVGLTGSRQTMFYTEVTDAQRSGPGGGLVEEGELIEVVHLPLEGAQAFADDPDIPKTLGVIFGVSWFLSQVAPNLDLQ

[22] = Inhibition of human His-tagged dUTPase expressed in bacterial expression system after 1 hr by malachite green reagent based assay

| Compound | hepatic extraction ratio [1] | Ratio [2] | IC50 [3] | half-life [4] | Stability [5] | half-life [7] | solubility kinetic [9] | ΔTm [11] | Stability [12] | Stability [13] | hepatic extraction ratio [14] | Activity [8] | further results |
| --- | --- | --- | --- | --- | --- | --- | --- | --- | --- | --- | --- | --- | --- |
| COc1ccc(-c2nn3c(-c4ccccn4)nnc3s2)cc1OC | 0.95 | 0.15 | 0.079 to 0.094 µM | 3 min | Stable | 21 min | 27 µM (≈ 9.16 µg/mL) | 9.4 °C | Stable | Stable | 0.67 | Non-Toxic | remaining at 4 h [6]: 100%; fraction unbound [10]: 0.063 |
| Cc1cc(-c2nn3c(-c4cccs4)nnc3s2)n[nH]1 | 0.97 | 0.78 | > 10 µM | 2 min | Stable | 14 min | 58 µM (≈ 16.7 µg/mL) | 0.9 °C | Stable | Stable | 0.79 | – | – |
| COc1ccc(-c2nn3c(-c4ccco4)nnc3s2)cc1OC | 0.99 | – | 0.019 µM | 1 min | Stable | 5 min | 19 µM (≈ 6.24 µg/mL) | – | Stable | Stable | 0.91 | Non-Toxic | – |

More lines, main results first:

| hepatic extraction ratio [1] | Ratio [2] | IC50 [3] | half-life [4] | Stability [5] | half-life [7] | solubility kinetic [9] | ΔTm [11] | Stability [12] | Stability [13] | hepatic extraction ratio [14] | Compound | Activity [8] | further results |
| --- | --- | --- | --- | --- | --- | --- | --- | --- | --- | --- | --- | --- | --- |
| – | – | – | 1 min | Stable | 4 min | 3 µM (≈ 1.03 µg/mL) | – | Stable | Stable | – | COc1ccc(-c2nn3c(-c4cccs4)nnc3s2)cc1OC | Non-Toxic | IC50 [15]: > 100 µM; IC50 [16]: > 100 µM; IC50 [17]: > 100 µM; IC50 [18]: > 100 µM; IC50 [19]: > 100 µM; IC50 [20]: > 100 µM; IC50 [21]: > 100 µM; IC50 [22]: > 100 µM |
| 0.99 | 3.5 | 0.19 µM | 1 min | Stable | 3 min | 25 µM (≈ 8.08 µg/mL) | 3.1 °C | Stable | Stable | 0.96 | c1ccc(-c2nnc3sc(-c4ccc5c(c4)OCO5)nn23)nc1 | – | – |
